Structures are written as SMILES. Calls of active or inactive are those of the source. The rule behind the calls is not given here.

In ChEMBL document CHEMBL3045346, “In vivo evaluation of substituted 2,3-diaryl acrylophenone amide derivatives as anti-implantation agents” (2009) one finds Activity data, which are given here for twelve compounds.

The subject of the assay is Rattus norvegicus. Briefly: Anti-implanatation activity in female Rattus norvegicus Sprague-Dawley (rat) assessed as implantation in uterine horns at 10 mg/kg, po administered on day 1 to 5 post-coitum measured on day 10 of pregnancy by laparotomy. It is filed as functional.
Consider `CCCCN(C)C(=O)COc1ccc(/C=C(/C(=O)c2ccc(OC)cc2)c2ccccc2)cc1`, for which the Activity is listed as 67%.
With `CCCCCCCCCNC(=O)COc1ccc(/C=C(/C(=O)c2ccc(OC)cc2)c2ccccc2)cc1`, the result was inactive.
With `CCCCCCN(CC)C(=O)COc1ccc(/C=C(/C(=O)c2ccc(OC)cc2)c2ccccc2)cc1` the figure was 33%; with `CCCCCCCCCCCCNC(=O)COc1ccc(/C=C(/C(=O)c2ccc(OC)cc2)c2ccc(OC)cc2)cc1`, “inactive”.
Then `CCCNC(=O)COc1ccc(/C=C(/C(=O)c2ccc(OC)cc2)c2ccccc2)cc1`, with “inactive”; and `CCCCN(C)C(=O)COc1ccc(/C=C(/C(=O)c2ccc(OC)cc2)c2ccc(OC)cc2)cc1`, with “inactive”.
As to `CCCCNC(=O)COc1ccc(/C=C(/C(=O)c2ccc(OC)cc2)c2ccccc2)cc1`, the outcome was inactive.
With `CCCCCCCCNC(=O)COc1ccc(/C=C(/C(=O)c2ccc(OC)cc2)c2ccccc2)cc1` the figure was 33%; with `COc1ccc2c(c1)OC(C)(C)[C@H](c1ccccc1)[C@H]2c1ccc(OCCN2CCCC2)cc1` (relative stereo) [REL-ORMELOXIFENE], 100%.
With `CCCCCCCCCCCCNC(=O)COc1ccc(/C=C(/C(=O)c2ccc(OC)cc2)c2ccccc2)cc1` the figure was 67%; with `CCCCCCCCNC(=O)COc1ccc(/C=C(/C(=O)c2ccc(OC)cc2)c2ccc(OC)cc2)cc1`, 100%.
On to `CCCCNC(=O)COc1ccc(/C=C(/C(=O)c2ccc(OC)cc2)c2ccc(OC)cc2)cc1`, for which the Activity worked out at 67%.
